Values after ≈ are worked out from the molar mass of the structure shown. Read-outs that look alike come from different tables or passages of the source.
What was measured:
[1] = Water solubility by saturating water, lyophilizing and weighing; assay type: physicochemical; details: thermodynamic from solid; saturated water
Source text: Solubility in water was expressed in mol/L (M).

[2] = Surface tension in water by the Wilhelmy plate method (surfactant properties); assay type: physicochemical; details: 25 °C; for Minimum occupied area per molecule at the air–water interface (σ): calculated from curve log C vs. γ; for Critical aggregation concentration (CAC): from curve log C vs. γ
Procedure: The surface tension (γ) in water was determined using the Wilhelmy plate method at 25 °C. […] With this curve, parameters such as critical aggregation concentration (CAC) and minimum occupied area per molecule at the air–water interface (σ) were calculated, as well as the surface tension that remains constant from CAC (γw).
Surface tension (γ) was obtained by the Wilhelmy plate method, using a Force Tensiometer KRUSS at 25 °C. […] The curve log C vs. γ allowed us to calculate critical aggregate concentration (CAC), minimum occupied area per molecule at the air–water interface (σ) and the surface tension (γw) that remains constant after the CAC was obtained. Each measurement was conducted in triplicate.

[3] = Radical scavenging activity by the DPPH method; assay type: biochemical; details: DPPH 10^−4 M in methanol, triplicate
Procedure: This method measures the antioxidant capacity of a compound to reduce the purple-colored DPPH radical solution to yellow-colored DPPH-H. DPPH solution was prepared at a concentration of 10^−4 M in methanol. The IC50 was calculated using the formula IC50 = (y − b)/a obtained from the equation of the line y = ax + b where a is the directing coefficient and b the y-intercept. Each measurement was conducted in triplicate.

Escherichia coli = assay: Antibacterial activity by resazurin reduction test; assay type: cell-based; details: fluorescence over 72 h, compounds in DMSO, triplicate, read-out: Antibacterial Activity Against E. coli: IC50
Source text: These properties are usually studied by dilution and disk diffusion assay. The resazurin test is another method that can be used for measuring antibacterial activity. It is a protocol based on cell viability assays. […] This process leads to the formation of a pink fluorescent substance called resorufin. This reduction allows bacterial metabolic activity to be measured directly by measuring fluorescence. This is used to determine the antibacterial activity of the compounds being tested, using a fluorescence microplate reader. The lower the resorufin production, the lower the measured fluorescence and the higher the antibacterial activity.
Resazurin is a blue colorant that reduces to the fluorescent pink resorufin when metabolized by the cells from bacterial respiratory chains. The metabolic activity of the cells was measured by reading the fluorescence over 72 h using a BioTek FLx800 Fluorescence Microplate Reader.
Strains of Escherichia coli were cultured for 12 h on solid LB medium (Luria–Bertani) at 35 °C. The next day, some colonies were taken and placed in a nutrient broth and incubated at 35 °C until an optical density of 0.4 was obtained. […] A control with ethoxyethanol was performed. A positive control to verify the growth of the bacteria in the absence of catechin or hemi-synthesis compound was performed as well. The IC50 was calculated using the formula IC50 = (y − b)/a obtained from the equation of the line y = ax + b, where a is the directing coefficient and b the y-intercept. Each measurement was conducted in triplicate.

[4] = DPPH; cited from earlier work
E. coli = system: E. coli; set-up: method as in PMID 743641; details: cited from earlier work
[5] = set-up: method as in doi:10.1016/j.fluid.2014.09.013; details: anhydrous catechin; cited from earlier work

SMILES | solubility [1] | Surface tension from CAC (γw) [2] | Minimum occupied area per molecule at the air–water interface (σ) [2] | Critical aggregation concentration (CAC) [2] | Radical Scavenging Activity: IC50 [4] | further results
CCCCCCCC(=O)N[C@@H](C)C(=O)OC1Cc2c(O)cc(O)cc2OC1c1ccc(O)c(O)c1 (stereo partly shown) [7a, 2-(3,4-Dihydroxyphenyl)-5,7-dihydroxychroman-3-yl octanoylalaninate] | 1300 µM (≈ 634 µg/mL) | 35 mN/m | 8 Å^2/molecule | 100 µM | – | Radical Scavenging Activity: IC50 [3]: 2.06 ± 0.04 µg/mL; IC50 (Escherichia coli): 32 ± 3 mM
CCCCCCCCCCCC(=O)N[C@@H](C)C(=O)OC1Cc2c(O)cc(O)cc2OC1c1ccc(O)c(O)c1 (stereo partly shown) [7b, 2-(3,4-Dihydroxyphenyl)-5,7-dihydroxychroman-3-yl dodecanoylalaninate] | 360 µM (≈ 196 µg/mL) | 32 mN/m | 10 Å^2/molecule | 50 µM | – | Radical Scavenging Activity: IC50 [3]: 2.42 ± 0.06 µg/mL; IC50 (Escherichia coli): 34 ± 3 mM
CCCCCCCCCCCCCC(=O)OC1Cc2c(O)cc(O)cc2OC1c1ccc(O)c(O)c1 (stereo not shown) [6c, 2-(3,4-Dihydroxyphenyl)-5,7-dihydroxychroman-3-yl tetradecanoate] | 4800 µM (≈ 2400 µg/mL) | 41 mN/m | 23 Å^2/molecule | 590 µM | – | –
Cc1cc(C(C)(C)C)c(O)c(C(C)(C)C)c1 [BHT, Butylated hydroxytoluene] | – | – | – | – | 12.8 ± 0.08 µg/mL | effect on growth of E. coli (E. coli; regardless of the concentration): fails to decrease the growth of E. coli
O=C1c2c(O)cc(O)cc2OC(c2ccc(O)c(O)c2)C1O (stereo not shown) [taxifolin] | – | – | – | – | 10.06 ± 1.08 µg/mL | –
CCCCCCCCCCCCCCCC(=O)OC1Cc2c(O)cc(O)cc2OC1c1ccc(O)c(O)c1 (stereo not shown) [6d, 2-(3,4-Dihydroxyphenyl)-5,7-dihydroxychroman-3-yl hexadecanoate] | 240 µM (≈ 127 µg/mL) | 42 mN/m | 29 Å^2/molecule | 10 µM | – | –
CCCCCCCCCCCCCC(=O)N[C@@H](C)C(=O)OC1Cc2c(O)cc(O)cc2OC1c1ccc(O)c(O)c1 (stereo partly shown) [7c, 2-(3,4-Dihydroxyphenyl)-5,7-dihydroxychroman-3-yl tetradecanoylalaninate] | 580 µM (≈ 332 µg/mL) | 33 mN/m | 19 Å^2/molecule | 40 µM | – | Radical Scavenging Activity: IC50 [3]: 2.01 ± 0.05 µg/mL; IC50 (Escherichia coli): 23 ± 1 mM
COc1ccc(O)c(C(C)(C)C)c1 [BHA, Butylated hydroxyanisole] | – | – | – | – | 21.3 ± 0.12 µg/mL | growth of E. coli (E. coli; at concentrations above 100 μg/mL): 33%
Oc1cc(O)c2c(c1)O[C@H](c1ccc(O)c(O)c1)[C@@H](O)C2 [Catechin, (+)-catechin, reference compound] | – | – | – | – | – | Radical Scavenging Activity: IC50 [3]: 2.43 ± 0.03 µg/mL; IC50 (Escherichia coli): 36 ± 2 mM; Water Solubility [5]: 15700 µM
O=c1c(O)c(-c2ccc(O)c(O)c2)oc2cc(O)cc(O)c12 [quercetin] | – | – | – | – | 1.59 ± 0.02 µg/mL | –
CCCCCCCCCCCCCCCC(=O)N[C@@H](C)C(=O)OC1Cc2c(O)cc(O)cc2OC1c1ccc(O)c(O)c1 (stereo partly shown) [7d, 2-(3,4-Dihydroxyphenyl)-5,7-dihydroxychroman-3-yl hexadecanoylalaninate] | 22 µM (≈ 13.2 µg/mL) | 32 mN/m | 45 Å^2/molecule | 2 µM | – | Radical Scavenging Activity: IC50 [3]: 26.73 ± 0.43 µg/mL
CCCCCCCC(=O)OC1Cc2c(O)cc(O)cc2OC1c1ccc(O)c(O)c1 (stereo not shown) [6a, 2-(3,4-Dihydroxyphenyl)-5,7-dihydroxychroman-3-yl octanoate] | 6000 µM (≈ 2500 µg/mL) | 43 mN/m | 14 Å^2/molecule | 890 µM | – | –
O=C(OC[C@H]1O[C@@H](OC(=O)c2cc(O)c(O)c(OC(=O)c3cc(O)c(O)c(O)c3)c2)[C@H](OC(=O)c2cc(O)c(O)c(OC(=O)c3cc(O)c(O)c(O)c3)c2)[C@@H](OC(=O)c2cc(O)c(O)c(OC(=O)c3cc(O)c(O)c(O)c3)c2)[C@@H]1OC(=O)c1cc(O)c(O)c(OC(=O)c2cc(O)c(O)c(O)c2)c1)c1cc(O)c(O)c(OC(=O)c2cc(O)c(O)c(O)c2)c1 [tannic acid] | – | – | – | – | 23.65 µg/mL | –
COc1cc(C[C@@H](CO)[C@H](CO)Cc2ccc(O)c(OC)c2)ccc1O [secoisolariciresinol] | – | – | – | – | 9.39 ± 0.01 µg/mL | –
CCCCCCCCCCCC(=O)OC1Cc2c(O)cc(O)cc2OC1c1ccc(O)c(O)c1 (stereo not shown) [6b, 2-(3,4-Dihydroxyphenyl)-5,7-dihydroxychroman-3-yl dodecanoate] | 4800 µM (≈ 2270 µg/mL) | 49 mN/m | 17 Å^2/molecule | 680 µM | – | –
O=C(O)c1cc(O)c(O)c(O)c1 [gallic acid] | – | – | – | – | 2.04 ± 0.03 µg/mL | –
O=C(O)/C=C/c1ccc(O)c(O)c1 [caffeic acid] | – | – | – | – | 10.64 µg/mL | –

Source: article PMC12608305, “Rapid Hemi-Synthesis of Multifunctional Amphiphilic Derivatives Based on Polyphenolic Extractives: Surface Activity, Antioxidant and Antibacterial Properties” (Molecules, 2025)
